Test results taken from patent US20120196899A1, “METHODS AND PRODUCTS FOR TREATING INFLAMMATION” (Rock Creek Pharmaceuticals, Inc., priority 2010, published 2012).
Where two headings read alike, the source gives them in different places.

Assay: Plasma toxicokinetics after single i.v. bolus
Type: in vivo, Sprague-Dawley rats
Settings: for concentration at 0.5 h / concentration at 1 h / concentration at 2 h / concentration at 4 h / concentration at 6 h / concentration at 8 h / AUC(0-inf) / MRT / Vd / half-life: Sprague-Dawley, rat, plasma; for concentration at 0.5 h / concentration at 1 h / concentration at 2 h / concentration at 4 h / concentration at 6 h / concentration at 8 h: intravenous, read-out: Avg. Conc. rat plasma; for AUC(0-inf) / MRT / Vd / half-life: iv; for half-life: read-out: t1/2 (converted)
Experimental: Six rats (3 males and 3 females) were dosed per dose group. […] Plasma and brain homogenates were stored at −80° C. until analysis.
An additional 48 rats (24 males and 24 females) received a single intravenous dose via the tail vein at the same doses as mentioned above. At 30 and 360 minutes post administration, 6 rats (3 males and 3 females) per dose group, per time point were euthanized, bled via cardiac puncture, and perfused, and brains were collected. The brains were homogenized. Blood was spun, and plasma was collected. Plasma and brain homogenate were stored at −80° C.
Four aliquots of each dose level formulation were collected and stored at −80° C. The test compound, corresponding dose level, number of animals, and sample collection times for Phase I of the study are shown in Table 3. The test compound, corresponding dose level, number of animals, and sample collection times for Phase II of the study are shown in Table 4. The physical signs of each animal were monitored following administration of the test compound.
The animals were weighed prior to dosing and received a single i.v. dose of either test compound at a volume of 5 mL/kg. Blood was collected via the venus plexus (retro-orbital) into tubes containing (K2) EDTA. No more than 0.5 mL was collected per time point. […] The brain was removed, weighed, homogenized in sterile 0.9% saline at a volume equal to its weight, and stored at −80° C.
Plasma was separated according to the instructions for MICROTAINER® brand collection tubes (3 minutes, 2000×g). Plasma was decanted into microfuge tubes and stored at −80° C. Remaining test compound was stored at −80° C.
The signal was optimized for each compound by electrospray ionization (ESI) positive or negative ionization mode. A single ion mode (SIM) scan was used to optimize the Fragmentor for the precursor ion and a product ion analysis was used to identify the best fragment for analysis and to optimize the collision energy. The fragment which gave the most sensitive and specific signal was chosen.
Sample preparation. […] The amount of the test agent in the supernatant was determined by liquid chromatography tandem mass spectrometry (LC/MS/MS).
Analysis. Samples were analyzed by LC/MS/MS using an Agilent 6410 mass spectrometer coupled with an Agilent 1200 high pressure liquid chromatography (HPLC) and a CTC PAL chilled autosampler, all controlled by MassHunter software (Agilent). After separation on a hydrophilic interaction liquid chromatography (HILIC) HPLC column (Sepax) using an acetonitrile-ammonium acetate/acetic acid gradient system, peaks were analyzed by mass spectrometry (MS) using ESI ionization in multiple reaction monitoring (MRM) mode. MassHunter software was used to calculate the concentration of the test compounds in samples from the peak area using the appropriate calibration curves.
Calibration samples. Calibration curves were determined for both rat plasma and brain homogenate. Calibration samples were prepared by diluting a 50× stock solution of the test compound in PBS with blank matrix to the appropriate concentration and these samples were prepared as described above in the sample preparation.

[1] = female, 0.1 mg/kg, Anatabine 0.1 mg/kg, female
[2] = female, 0.75 mg/kg, Anatabine 0.75 mg/kg, female
[3] = female, 1 mg/kg, Anatabine 1.0 mg/kg, female
[4] = male, 0.1 mg/kg, Anatabine 0.1 mg/kg, male
[5] = male, 0.75 mg/kg, Anatabine 0.75 mg/kg, male
[6] = male, 1 mg/kg, Anatabine 1.0 mg/kg, male

`C1=CCC(c2cccnc2)NC1` (racemic) [Anatabine, 1,2,3,6-tetrahydro-[2,3′]bipyridinyl] showed a concentration at 0.5 h (female, 0.1 mg/kg, Anatabine 0.1 mg/kg, female, 0.5 hr (2nd 0.5 hr line)) of 31.7 ng/mL, a concentration at 1 h [1] of 11 ng/mL and a concentration at 2 h [1] of 6.7 ng/mL. For the same compound, the concentration at 4 h [1] was 4 ng/mL, the concentration at 6 h (female, 0.1 mg/kg, Anatabine 0.1 mg/kg, female, 6 hr (1st 6 hr line, N=3)) was 3.7 ng/mL and the concentration at 6 h (female, 0.1 mg/kg, Anatabine 0.1 mg/kg, female, 6 hr (2nd 6 hr line, N=1)) was 3 ng/mL. It also gave a concentration at 0.5 h (female, 0.75 mg/kg, Anatabine 0.75 mg/kg, female, 0.5 hr (1st 0.5 hr line)) of 190 ng/mL, a concentration at 0.5 h (female, 0.75 mg/kg, Anatabine 0.75 mg/kg, female, 0.5 hr (2nd 0.5 hr line)) of 354 ng/mL and a concentration at 1 h [2] of 173 ng/mL. It also gave a concentration at 2 h [2] of 99.7 ng/mL, a concentration at 4 h [2] of 45.3 ng/mL and a concentration at 6 h (female, 0.75 mg/kg, Anatabine 0.75 mg/kg, female, 6 hr (1st 6 hr line)) of 18.3 ng/mL. It also gave a concentration at 6 h (female, 0.75 mg/kg, Anatabine 0.75 mg/kg, female, 6 hr (2nd 6 hr line)) of 23 ng/mL, a concentration at 8 h [2] of 11 ng/mL and a concentration at 0.5 h (female, 1 mg/kg, Anatabine 1.0 mg/kg, female, 0.5 hr (1st 0.5 hr line)) of 237 ng/mL. For the same compound, the concentration at 0.5 h (female, 1 mg/kg, Anatabine 1.0 mg/kg, female, 0.5 hr (2nd 0.5 hr line)) was 368 ng/mL, the concentration at 1 h [3] was 229 ng/mL and the concentration at 2 h [3] was 164 ng/mL. For the same compound, the concentration at 4 h [3] was 60.7 ng/mL, the concentration at 6 h (female, 1 mg/kg, Anatabine 1.0 mg/kg, female, 6 hr (1st 6 hr line)) was 29.3 ng/mL and the concentration at 6 h (female, 1 mg/kg, Anatabine 1.0 mg/kg, female, 6 hr (2nd 6 hr line)) was 23 ng/mL. It also gave a concentration at 8 h [3] of 17.7 ng/mL, an AUC(0-inf) (female, 0.1 mg/kg) of 37.9 ± 15.9 ng·h/mL and an MRT (female, 0.1 mg/kg) of 2.55 ± 0.93 h. For the same compound, the Vd (female, 0.1 mg/kg) was 6.52 ± 0.66 L/kg, the AUC(0-inf) (female, 0.75 mg/kg) was 544 ± 62.7 ng·h/mL and the Vd (female, 0.75 mg/kg) was 3.19 ± 0.15 L/kg. The half-life (female, 0.75 mg/kg, anatabine 0.75 mg/kg single i.v., female rats) was 1.73 ± 0.03 h, the AUC(0-inf) (female, 1 mg/kg) was 789 ng·h/mL and the MRT (female, 1 mg/kg) was 2.8 h. For the same compound, the Vd (female, 1 mg/kg) was 3.16 ± 0.15 L/kg, the half-life (female, 1 mg/kg, anatabine 1.0 mg/kg single i.v., female rats) was 1.84 h and the concentration at 0.5 h (male, 0.1 mg/kg, Anatabine 0.1 mg/kg, male, 0.5 hr (1st 0.5 hr line)) was 15.3 ng/mL. It also gave a concentration at 0.5 h (male, 0.1 mg/kg, Anatabine 0.1 mg/kg, male, 0.5 hr (2nd 0.5 hr line)) of 31.7 ng/mL, a concentration at 1 h [4] of 12.3 ng/mL and a concentration at 2 h [4] of 6.3 ng/mL. The concentration at 4 h [4] was 3 ng/mL, the concentration at 6 h (male, 0.1 mg/kg, Anatabine 0.1 mg/kg, male, 6 hr (2nd 6 hr line)) was 5 ng/mL and the concentration at 0.5 h (male, 0.75 mg/kg, Anatabine 0.75 mg/kg, male, 0.5 hr (1st 0.5 hr line)) was 181 ng/mL. For the same compound, the concentration at 0.5 h (male, 0.75 mg/kg, Anatabine 0.75 mg/kg, male, 0.5 hr (2nd 0.5 hr line)) was 302 ng/mL, the concentration at 1 h [5] was 152 ng/mL and the concentration at 2 h [5] was 83.7 ng/mL. It also gave a concentration at 4 h [5] of 34.7 ng/mL, a concentration at 6 h (male, 0.75 mg/kg, Anatabine 0.75 mg/kg, male, 6 hr (1st 6 hr line)) of 14 ng/mL and a concentration at 6 h (male, 0.75 mg/kg, Anatabine 0.75 mg/kg, male, 6 hr (2nd 6 hr line)) of 22 ng/mL. It also gave a concentration at 8 h [5] of 9 ng/mL, a concentration at 0.5 h (male, 1 mg/kg, Anatabine 1.0 mg/kg, male, 0.5 hr (1st 0.5 hr line)) of 272 ng/mL and a concentration at 0.5 h (male, 1 mg/kg, Anatabine 1.0 mg/kg, male, 0.5 hr (2nd 0.5 hr line)) of 399 ng/mL. It also gave a concentration at 1 h [6] of 234 ng/mL, a concentration at 2 h [6] of 123 ng/mL and a concentration at 4 h [6] of 42.3 ng/mL. It also gave a concentration at 6 h (male, 1 mg/kg, Anatabine 1.0 mg/kg, male, 6 hr (1st 6 hr line)) of 18 ng/mL, a concentration at 6 h (male, 1 mg/kg, Anatabine 1.0 mg/kg, male, 6 hr (2nd 6 hr line)) of 27 ng/mL and a concentration at 8 h [6] of 7.7 ng/mL. The AUC(0-inf) (male, 0.1 mg/kg) was 32 ± 7.7 ng·h/mL, the MRT (male, 0.1 mg/kg) was 2.03 ± 0.41 h and the Vd (male, 0.1 mg/kg) was 5.29 ± 0.49 L/kg. It also gave a half-life (male, 0.1 mg/kg, anatabine 0.1 mg/kg single i.v., male rats) of 1.25 ± 0.32 h, an AUC(0-inf) (male, 0.75 mg/kg) of 464 ± 36.2 ng·h/mL and an MRT (male, 0.75 mg/kg) of 2.5 ± 0.19 h. The Vd (male, 0.75 mg/kg) was 3.48 ± 0.18 L/kg, the AUC(0-inf) (male, 1 mg/kg) was 631 ng·h/mL and the MRT (male, 1 mg/kg) was 2.18 h. For the same compound, the Vd (male, 1 mg/kg) was 3.01 ± 0.12 L/kg, the half-life (male, 1 mg/kg, anatabine 1.0 mg/kg single i.v., male rats) was 1.44 h and the “plasma concentration between approximately 6 and 8 hours” value (nicotine 0.4 mg/kg, anatabine 0.1 mg/kg single i.v., rats) was “below the limits of quantitation”.
